The values below come from publication PMC12692713, “Neuroprotective and Antioxidant Properties of Different Novel Steroid-Derived Nitrones and Oximes on Cerebral Ischemia In Vitro” (International Journal of Molecular Sciences, 2025).

Read-outs that look alike come from different tables or passages of the source.

In this assay the target is T1, soybean lipoxygenase (LOX) (Glycine max, UniProt P08170).
T1 construct: gene LOX1.1
T1 sequence (P08170 1-839): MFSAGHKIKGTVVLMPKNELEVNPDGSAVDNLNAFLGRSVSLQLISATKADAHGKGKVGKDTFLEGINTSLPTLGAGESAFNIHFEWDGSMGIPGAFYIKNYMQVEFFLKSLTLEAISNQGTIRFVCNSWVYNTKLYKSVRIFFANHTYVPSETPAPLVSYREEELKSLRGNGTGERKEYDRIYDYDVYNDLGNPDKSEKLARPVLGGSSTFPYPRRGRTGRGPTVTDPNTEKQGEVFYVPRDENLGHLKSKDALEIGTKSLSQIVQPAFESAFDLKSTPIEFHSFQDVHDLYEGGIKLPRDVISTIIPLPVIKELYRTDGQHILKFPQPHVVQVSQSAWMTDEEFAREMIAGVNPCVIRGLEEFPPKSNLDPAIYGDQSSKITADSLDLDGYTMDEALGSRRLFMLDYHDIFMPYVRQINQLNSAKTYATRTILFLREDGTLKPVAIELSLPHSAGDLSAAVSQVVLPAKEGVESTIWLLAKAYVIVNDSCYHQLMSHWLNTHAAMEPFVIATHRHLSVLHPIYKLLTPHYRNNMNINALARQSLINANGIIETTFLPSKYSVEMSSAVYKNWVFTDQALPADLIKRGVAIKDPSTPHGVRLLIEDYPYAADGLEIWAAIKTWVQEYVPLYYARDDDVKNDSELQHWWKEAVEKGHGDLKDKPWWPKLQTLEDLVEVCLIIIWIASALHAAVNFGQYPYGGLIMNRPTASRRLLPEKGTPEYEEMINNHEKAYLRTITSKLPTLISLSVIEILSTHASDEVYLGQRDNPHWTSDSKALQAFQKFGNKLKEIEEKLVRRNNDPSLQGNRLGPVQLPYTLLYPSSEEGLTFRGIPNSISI
As to the kind of experiment: UV absorbance at […] nm, conversion of sodium linoleate to 13-hydroperoxylinoleic acid, Tris pH […]. Format: biochemical.

For orientation: IC50 means the point on the concentration scale where inhibition reaches its midpoint. Consider `CC#C[C@]1(O)CC[C@H]2[C@@H]3CCC4=CC(=NO)CCC4=C3[C@@H](c3ccc(N(C)C)cc3)C[C@@]21C` [MC4], for which the IC50 (read-out: LOX Inhibition (% or IC50)) is 3.8 ± 0.3 µM.

On to `C#C[C@]1(O)CC[C@H]2[C@@H]3CCC4=CC(=[N+](C)[O-])CC[C@]4(C)[C@H]3CC[C@@]21C` [MC3], for which the IC50 was 62 ± 0.8 µM. Still for that read-out and setting: under `C#C[C@]1(O)CC[C@H]2[C@@H]3CCC4=CC(=NO)CC[C@]4(C)[C@H]3CC[C@@]21C` (mixture of isomers) [MC2] stands 97 ± 1.5 µM.
